Our source for the Ki, Km and IC50 values is doi:10.1101/469072v1 (biorxiv, 2018).

The Ki is a dissociation constant, usually derived from enzyme kinetics or from competition with a known ligand. Higher therefore signals weaker binding. For orientation: Km means the substrate concentration at which the rate is half of its maximum. What is called IC50 is the point on the concentration scale where inhibition reaches its midpoint.

Structures are written as SMILES. Read-outs that look alike come from different tables or passages of the source.

The target of test [1] is NfGlck. The experiment in a line: coupled glucokinase assay, absorbance at […] nm. It counts as biochemical, Naegleria fowleri.
Test [2] relates to NfGlck. Kind of test: coupled glucokinase assay, absorbance at […] nm. It counts as biochemical, Naegleria fowleri. The conditions noted are these: read-out: apparent Km, MgCl2.
Test [3] has as its target T1, TbHK1 (Trypanosoma brucei, UniProt Q38C42).
T1 sequence (Q38C42 1-471): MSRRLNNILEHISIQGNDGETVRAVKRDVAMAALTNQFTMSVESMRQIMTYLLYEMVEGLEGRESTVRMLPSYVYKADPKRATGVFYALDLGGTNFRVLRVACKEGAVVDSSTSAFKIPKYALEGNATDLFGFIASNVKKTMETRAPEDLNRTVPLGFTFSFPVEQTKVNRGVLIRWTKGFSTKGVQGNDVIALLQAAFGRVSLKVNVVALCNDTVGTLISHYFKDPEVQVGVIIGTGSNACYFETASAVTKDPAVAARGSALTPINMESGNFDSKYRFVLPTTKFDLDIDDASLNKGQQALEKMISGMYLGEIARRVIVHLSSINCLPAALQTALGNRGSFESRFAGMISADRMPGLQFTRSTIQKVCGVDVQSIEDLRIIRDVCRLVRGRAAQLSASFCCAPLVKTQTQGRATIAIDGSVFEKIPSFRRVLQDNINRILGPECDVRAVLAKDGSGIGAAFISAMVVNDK
The conditions noted are these: read-out: TbHK1 IC50; inhibitor.

In test [4] the target is T2, HsGlck (Homo sapiens, UniProt P35557).
T2 sequence (P35557 1-465): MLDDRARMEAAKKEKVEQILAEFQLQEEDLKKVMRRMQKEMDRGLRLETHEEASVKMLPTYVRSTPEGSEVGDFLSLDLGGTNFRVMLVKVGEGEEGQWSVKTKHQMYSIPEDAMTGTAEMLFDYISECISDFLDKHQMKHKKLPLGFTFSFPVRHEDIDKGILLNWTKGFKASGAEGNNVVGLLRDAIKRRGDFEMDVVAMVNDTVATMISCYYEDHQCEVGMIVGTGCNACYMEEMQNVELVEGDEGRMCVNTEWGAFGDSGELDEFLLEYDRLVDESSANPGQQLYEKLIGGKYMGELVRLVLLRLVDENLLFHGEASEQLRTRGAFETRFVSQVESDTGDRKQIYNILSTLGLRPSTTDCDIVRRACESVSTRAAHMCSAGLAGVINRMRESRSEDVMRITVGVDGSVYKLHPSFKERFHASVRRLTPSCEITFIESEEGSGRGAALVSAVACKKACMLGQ
The experiment in a line: biochemical.

In test [5] the target is T1, TbHK1. The experiment in a line: enzyme inhibition assay. It counts as biochemical.
A further test concerns the target T3, PfHK (Plasmodium falciparum, UniProt Q02155).
T3 sequence (Q02155 1-493): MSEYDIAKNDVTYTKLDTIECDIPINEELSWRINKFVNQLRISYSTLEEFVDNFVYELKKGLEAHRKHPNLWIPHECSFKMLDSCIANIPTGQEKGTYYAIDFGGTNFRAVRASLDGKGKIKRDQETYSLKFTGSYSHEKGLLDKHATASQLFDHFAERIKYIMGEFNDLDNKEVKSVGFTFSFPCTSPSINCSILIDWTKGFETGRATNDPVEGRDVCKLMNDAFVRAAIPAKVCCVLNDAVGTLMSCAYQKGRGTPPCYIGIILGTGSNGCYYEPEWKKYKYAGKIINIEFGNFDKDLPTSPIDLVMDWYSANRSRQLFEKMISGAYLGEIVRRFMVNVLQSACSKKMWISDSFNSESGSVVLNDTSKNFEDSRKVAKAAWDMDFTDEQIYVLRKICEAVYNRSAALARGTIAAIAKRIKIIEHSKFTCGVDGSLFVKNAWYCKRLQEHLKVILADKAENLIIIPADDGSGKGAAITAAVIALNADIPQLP
The experiment in a line: enzyme inhibition assay. It counts as biochemical.

For test [6], the target named is NfGlck. The experiment in a line: coupled glucokinase assay, absorbance at […] nm. It is filed as biochemical, Naegleria fowleri. The conditions noted are these: pH 7.4, MgCl2.
The target of test [7] is T2, HsGlck. The experiment in a line: enzyme inhibition assay. It is filed as biochemical.
Setting [8] is: mixed inhibitor with respect to ATP.

In the case of `Nc1ncnc2c1ncn2[C@@H]1O[C@H](COP(=O)(O)OP(=O)(O)O)[C@@H](O)[C@H]1O` [ADP], at NfGlck [1], the Ki turned out to be 116 ± 7 µM.
Consider `Nc1ncnc2c1ncn2[C@@H]1O[C@H](COP(=O)(O)OP(=O)(O)OP(=O)(O)O)[C@@H](O)[C@H]1O` [ATP], for which the Michaelis constant (Km) in the test with NfGlck [2] (co-substrate glucose) stood at 142 ± 9.9 µM.
Consider `CC(C)(C)c1ccc(C(=O)Nc2cc(Cl)c(-c3ccc(C(F)(F)F)cc3)cc2C(=O)O)cc1` [SID162211070], for which the half-maximal inhibitory concentration (IC50) at TbHK1 [3] and at HsGlck [4] was > 10 µM each time.
Regarding `CC(C)(C)c1ccc(C(=O)Nc2cc(Cl)c(-c3ccc(C(=O)O)cc3)cc2C(=O)O)cc1` [SID162211072], the IC50 is 3.5 µM on TbHK1 [3] and > 10 µM against HsGlck [4].
Taken in the same sequence, the figures for `CC(C)(C)c1ccc(C(=O)Nc2cc(Cl)c(-c3ccc(OC(F)(F)F)cc3)cc2C(=O)O)cc1` [SID162211074] were > 10 µM and > 10 µM.
As for `CC(C)(C)c1ccc(C(=O)Nc2cc(Cl)c(-c3cccc([N+](=O)[O-])c3)cc2C(=O)O)cc1` [SID162211082], the IC50 on TbHK1 [3] and at HsGlck [4] was > 10 µM in each case.
With `NC(N)=Nc1ccc(-c2ccc(-c3ccc(N=C(N)N)cc3Cl)o2)c(Cl)c1` [compound 1, 2-[3-chloro-4-[5-[2-chloro-4-(diaminomethylideneamino)phenyl]furan-2-yl]phenyl]guanidine], the half-maximal inhibitory concentration (IC50) on TbHK1 [5] was 2.9 ± 1.13 µM; against PfHK, 0.78 ± 0.17 µM; at NfGlck [6] (setting [8]), 2.02 ± 0.31 µM; against HsGlck [7], > 10 µM.
Taken in the same sequence, the figures for `NC(N)=Nc1ccc(-c2ccc(-c3ccc(N=C(N)N)c(Cl)c3)o2)cc1Cl` [compound 2, 2-[2-chloro-4-[5-[3-chloro-4-(diaminomethylideneamino)phenyl]furan-2-yl]phenyl]guanidine] were 1.3 ± 0.43 µM, 0.16 ± 0.06 µM, 0.7 ± 0.09 µM and 2.58 ± 0.53 µM.
In turn, `O=c1c2ccccc2[se]n1-c1ccccc1` [compound 3, 2-phenyl-1,2-benzisoselenazol-3(2H)-one] registered an IC50 against NfGlck [6] of 0.88 ± 0.06 µM.
Same read-out and setting: under `O=c1c2ccccc2sn1-c1ccccc1` [compound 4, Ebsulfur] stands > 10 µM.
In the case of `CC(C)(C)c1ccc(C(=O)Nc2cc(Cl)c(C3CC3)cc2C(=O)O)cc1` [compound 6, SID162211071], the IC50 against TbHK1 [5] is 6.7 ± 0.38 µM; on NfGlck [6], > 10 µM; against HsGlck [7] it was > 10 µM.
In the case of `CC(C)(C)c1ccc(C(=O)Nc2cc(Cl)c(-c3cccnc3)cc2C(=O)O)cc1` [compound 7, SID162211077], the half-inhibitory concentration (IC50) at TbHK1 [5], at NfGlck [6] and against HsGlck [7] was > 10 µM in each case.
For `CC(C)(C)c1ccc(C(=O)Nc2cc(Cl)c(-c3ccccc3)cc2C(=O)O)cc1` [compound 8, SID144241590], the 50% inhibitory concentration (IC50) against TbHK1 [5] is 0.28 µM; at PfHK, > 10 µM; against NfGlck [6] it was > 10 µM; against HsGlck [7] it was > 10 µM.
As to `CC(C)(C)c1ccc(C(=O)Nc2cc(Cl)c(-c3cccc(F)c3)cc2C(=O)O)cc1` [compound 9, SID162211078], the half-maximal inhibitory concentration (IC50) on TbHK1 [5], against NfGlck [6] and against HsGlck [7] was > 10 µM each time.
Consider `CC(C)(C)c1ccc(C(=O)Nc2cc(Cl)c(-c3ccccc3F)cc2C(=O)O)cc1` [compound 10, SID162211083], for which the IC50 was 6.7 ± 1 µM against TbHK1 [5], > 10 µM against NfGlck [6] and > 10 µM against HsGlck [7].
Consider `CC(C)(C)c1ccc(C(=O)Nc2cc(Cl)c(-c3cccc(Cl)c3)cc2C(=O)O)cc1` [compound 11, SID162211084], for which the half-inhibitory concentration (IC50) was > 10 µM on TbHK1 [5], 6.5 ± 0.61 µM at NfGlck [6] and > 10 µM against HsGlck [7].
Turning to `CC(C)(C)c1ccc(C(=O)Nc2cc(Cl)c(-c3ccc(F)c(Cl)c3)cc2C(=O)O)cc1` [compound 12, SID162211073], the half-inhibitory concentration (IC50) against TbHK1 [5] was > 10 µM; on NfGlck [6], 5.9 ± 0.26 µM; against HsGlck [7] it was > 10 µM.
On to `CC(C)(C)c1ccc(C(=O)Nc2cc(Cl)c(-c3ccc(Cl)c(Cl)c3)cc2C(=O)O)cc1` [compound 13, SID162211080], for which the results for the half-maximal inhibitory concentration (IC50) against TbHK1 [5], at NfGlck [6] and on HsGlck [7] were > 10 µM, 2.9 ± 0.32 µM and > 10 µM, respectively.
`COc1cccc(-c2cc(C(=O)O)c(NC(=O)c3ccc(C(C)(C)C)cc3)cc2Cl)c1` [compound 14, SID162211075]: the concentration for half-maximal inhibition (IC50) against TbHK1 [5] was 3.9 ± 0.65 µM; against NfGlck [6], > 10 µM.
As for `COc1ccccc1-c1cc(C(=O)O)c(NC(=O)c2ccc(C(C)(C)C)cc2)cc1Cl` [compound 15, SID162211076], the IC50 on TbHK1 [5] is 9.3 ± 0.55 µM; on NfGlck [6], > 10 µM; at HsGlck [7], > 10 µM.
On to `CC(C)(C)c1ccc(C(=O)Nc2cc(Cl)c(-c3ccc(O)cc3)cc2C(=O)O)cc1` [compound 16, SID162211079], for which the IC50 at TbHK1 [5] is 3.1 ± 0.17 µM; against NfGlck [6], > 10 µM; against HsGlck [7], > 10 µM.
As to `CC(C)(C)c1ccc(C(=O)Nc2cc(Cl)c(-c3ccccc3O)cc2C(=O)O)cc1` [compound 17, SID162211085], the IC50 was 1.2 ± 0.1 µM against TbHK1 [5], > 10 µM against NfGlck [6] and > 10 µM on HsGlck [7].
In the case of `Cc1ccccc1-c1cc(C(=O)O)c(NC(=O)c2ccc(C(C)(C)C)cc2)cc1Cl` [compound 18, SID162211086], the concentration for half-maximal inhibition (IC50) against TbHK1 [5], at NfGlck [6] and at HsGlck [7] was > 10 µM throughout.
For `N[C@H]1C(O)O[C@H](CO)[C@@H](O)[C@@H]1O` (stereo partly shown) [glucosamine], the affinity at NfGlck [1] (competitive inhibitor of glucose), expressed as Ki, was 186 ± 20.6 µM.
As to `OC[C@H]1OC(O)[C@H](O)[C@@H](O)[C@@H]1O` (stereo partly shown) [glucose], in the test with NfGlck [2] (co-substrate ATP), the Michaelis constant (Km) amounted to 42.5 ± 7.3 µM.
